The supplement of paper PMC6045584

Legend:
Assay in all cases: area under dose-response curve of surviving fraction (unscaled, Aref=0) (surviving fraction x log10(nM)); higher = more resistant
Settings in all cases: exposure time: 5 days; dose range 0.5-1000 nM
[1] = compound: C=CCn1c(=O)c2cnc(Nc3ccc(N4CCN(C)CC4)cc3)nc2n1-c1cccc(C(C)(C)O)n1 [MK-1775]
Method in brief: (§1)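 Tumour cell lines in 384-well plates were exposed to eight inhibitor concentrations, from 0.5 to 1000 nM, for five days, and viability was read by CellTiter-Glo luminescence in three screens per line. Signals were normalised to DMSO-only wells, and 3-parameter logistic regression in the drc R package fitted dose-response survival curves to the surviving fractions. Area under the curve is given as the unscaled activity area. That area is taken over log10 dose with Aref = 0.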

[2] = compound: CC/C(=C(\c1ccc(O)cc1)c1ccc(OCCN(C)C)cc1)c1ccccc1 [AFIMOXIFENE]
Method in brief: as §1

[3] = compound: CCc1cc(Nc2nccc(-c3c(-c4ccc(OC)c(C(=O)Nc5c(F)cccc5F)c4)nc4ccccn34)n2)c(OC)cc1N1CCC(N2CCN(S(C)(=O)=O)CC2)CC1
Method in brief: as §1

[4] = compound: COc1cc2nccc(Oc3ccc(NC(=O)C4(C(=O)Nc5ccc(F)cc5)CC4)cc3)c2cc1OC [CABOZANTINIB]
Method in brief: as §1

[5] = compound: COc1cc2nccc(Oc3ccc(NC(=O)NC4CC4)c(Cl)c3)c2cc1C(N)=O [LENVATINIB]
Method in brief: as §1

[6] = compound: COc1ccc(-c2cc3c(C)nc(N)nc3n([C@H]3CC[C@H](OCCO)CC3)c2=O)cn1
Method in brief: as §1

[7] = compound: C[C@@H]1CN(CC(=O)Nc2ccc3c(c2)Cc2cccc(-c4cc(=O)cc(N5CCOCC5)o4)c2S3)C[C@H](C)O1
Method in brief: as §1

[8] = compound: C[C@H](CN(C)C)Oc1nc(Nc2cc3cccc(Cl)c3cn2)cnc1C#N
Method in brief: as §1

[9] = compound: Cc1c(N)nc([C@H](CC(N)=O)NC[C@H](N)C(N)=O)nc1C(=O)N[C@H](C(=O)N[C@H](C)[C@@H](O)[C@H](C)C(=O)N[C@H](C(=O)NCCc1nc(-c2nc(C(=O)NCCC[S+](C)C)cs2)cs1)[C@@H](C)O)[C@@H](OC1OC(CO)C(O)C(O)C1OC1OC(CO)C(O)C(OC(N)=O)C1O)c1cnc[nH]1 [BLEOMYCIN]
Method in brief: as §1

[10] = compound: Cc1ccc(NC(=O)c2ccc(CN3CCN(C)CC3)cc2)cc1Nc1nccc(-c2cccnc2)n1 [IMATINIB]
Method in brief: as §1

[11] = compound: Cc1cn(-c2cc(NC(=O)c3ccc(C)c(Nc4nccc(-c5cccnc5)n4)c3)cc(C(F)(F)F)c2)cn1 [NILOTINIB]
Method in brief: as §1

[12] = compound: Cn1c(=O)n(-c2ccc(C(C)(C)C#N)cc2)c2c3cc(-c4cnc5ccccc5c4)ccc3ncc21 [BEZ-235]
Method in brief: as §1

[13] = compound: Cn1ncnc1[C@H]1c2n[nH]c(=O)c3cc(F)cc(c23)N[C@@H]1c1ccc(F)cc1 [BMN-673]
Method in brief: as §1

[14] = compound: O=C(CCCCCCC(=O)Nc1ccccc1)NO [VORINOSTAT]
Method in brief: as §1

Row | Test System | area under dose-response curve [1] | area under dose-response curve [2] | area under dose-response curve [3] | area under dose-response curve [4] | area under dose-response curve [5] | area under dose-response curve [6] | area under dose-response curve [7] | area under dose-response curve [8] | area under dose-response curve [9] | area under dose-response curve [10] | area under dose-response curve [11] | area under dose-response curve [12] | area under dose-response curve [13] | area under dose-response curve [14]
1 | BT549 BREAST | 2.27 | 3.21 | 3.58 | 3.6 | 3.7 | 2.15 | 2.89 | 2.68 | 1.6 | 3.76 | 3.42 | 2.29 | 2.53 | –
2 | CME SYNOVIAL | – | 4.56 | – | 3.92 | – | 2.55 | – | 4.25 | 1.51 | – | – | – | 0.962 | –
3 | SUM149 BREAST | 2.21 | 3.16 | 3.6 | 3.18 | – | 2.28 | 3.07 | 2.65 | 1.44 | 3.23 | 2.88 | 2.39 | 0.994 | –
4 | SCC90 HEADNECK | 2.22 | – | 3.49 | 3.14 | 3.91 | 2.3 | – | 2.62 | 3.23 | 3.71 | – | 2.68 | 3.31 | –
5 | SJSA1 BONE | 2.86 | – | 3.48 | 5.44 | 3.51 | 2.46 | 3.26 | 5.38 | 2.25 | – | 5.57 | 2.51 | 4.84 | 2.78
6 | SUM44 BREAST | 2.54 | – | – | 4.12 | 3.41 | 2.6 | 3.07 | 2.65 | 3.07 | – | 3.21 | 2.29 | 3.29 | 2.88
7 | KPD BONE | 2.7 | 3.52 | 3.24 | 3.33 | – | 1.97 | 3.21 | 2.98 | 2.48 | 3.49 | 3.25 | 2.12 | 1.92 | –
8 | YAMATO SYNOVIAL | – | 4.25 | 4.39 | 2.65 | – | 2.19 | – | – | 3.25 | – | – | 2.84 | 2.65 | –
9 | A549 LUNG | 3.15 | 3.56 | 3.29 | 3.3 | 3.51 | 2.8 | 3.58 | 3.25 | 3.18 | 3.65 | 3.59 | 2.55 | 3.58 | –
10 | SAOS2 BONE | 2.49 | 3.87 | 3.69 | – | 3.65 | 2.29 | 3.16 | – | 2.59 | 3.89 | 3.18 | 2.74 | 2.32 | –
11 | HCC202 BREAST | 2.67 | – | 4 | – | – | 2.16 | 3.04 | – | – | – | – | 2.62 | – | 2.75
12 | SCC003 HEADNECK | 2.83 | – | 3.47 | 3.21 | 3.75 | 2.7 | 3.42 | 3.46 | 2.6 | 3.7 | 3.21 | 2.63 | 2.8 | –
13 | SG43 HEADNECK | – | – | 3.51 | 2.63 | 3.03 | 1.92 | – | 2.79 | 2.58 | 3.35 | 4.68 | 2.72 | 2.45 | 3.27
14 | SG27 HEADNECK | – | 3.58 | 3.63 | – | 3.51 | 2.65 | 3.35 | 3.57 | 3.29 | 3.66 | 3.63 | 3.01 | – | –
15 | 143B BONE | 2.71 | – | 3.38 | – | 3.51 | 2.78 | 3.28 | – | 3.15 | – | – | 2.55 | – | 3.26
16 | NOS1 BONE | 1.79 | 3.91 | 3.75 | 2.96 | 2.79 | 2.25 | – | 2.6 | 2.66 | – | 2.94 | 2.32 | 2.26 | –
17 | MDAMB468 BREAST | 2.87 | 3.58 | 3.5 | 3.58 | 3.61 | 2.59 | 3.17 | 3.03 | 3.15 | 3.53 | 3.07 | 2.83 | 2.09 | –
18 | SNU475 LIVER | 2.93 | – | 3.12 | 3.24 | – | 2.13 | 3.13 | – | 2.51 | 3.51 | 3.21 | 2.04 | 2.83 | 3.12
19 | HOSMNG BONE | 2.85 | 3.26 | 3.35 | 2.68 | 3.46 | 2.74 | 3.27 | 3.22 | – | 3.46 | 3.21 | 2.74 | 3.19 | –
20 | BT20 BREAST | 2.77 | 4.62 | – | 3.73 | 3.71 | 2.52 | – | 4.01 | 2.25 | 4.15 | 3.28 | 2.35 | 2.9 | –
21 | SG28 HEADNECK | 2.63 | – | 3.59 | – | 3.48 | 2.44 | – | – | 2.97 | – | – | 2.58 | – | –
22 | SG31 HEADNECK | 2.93 | 3.88 | 3.44 | 3.45 | 3.43 | 2.18 | 3.26 | – | 2.62 | – | 3.85 | 2.43 | – | –
23 | SUM149.B1*.S BREAST | 2.74 | 3.8 | 3.62 | 3.39 | 3.96 | 2.71 | – | – | 2.89 | 3.85 | 3.68 | 3.03 | 2.65 | –
24 | SG32 HEADNECK | 2.43 | – | 3.97 | 3.26 | 3.96 | 2.95 | 3.15 | – | 2.56 | 3.6 | 3.05 | 2.45 | 3.1 | 3.07
25 | C33A CERVIX | 2.33 | 3.76 | 2.94 | 2.65 | 3.26 | 2.1 | 3.44 | 3 | 2.02 | 3.47 | 3.63 | 2.24 | 1.82 | –
26 | DU4475 BREAST | 2.29 | 2.84 | 3.05 | 2.93 | – | 1.53 | 3.52 | 3.04 | 2.19 | 3.54 | 3.45 | 1.94 | 1.63 | –
